Measured values as given in ChEMBL document CHEMBL1201862, “PubChem BioAssay data set” (2004).
Several values for one entry are separate records, joined by “and”; a condition that tells them apart may be missing. Equal entries are not always repeated.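 Compound exposure: 48 hours, 5 concentrations, 96-well plates. GI50 is the concentration that inhibits growth by half.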 Activity calls are given as the source filed them. Rule as the data show it: active = GI50 up to about 1.1 µM and inactive = higher.

Experiments:
Experiment in all cases: DTP human tumour cell line panel, 48 h
MCF7 = system: MCF7
T47D = system: T47D
RPMI-8226 = system: RPMI-8226
UACC-257 = system: UACC-257
HOP-62 = system: HOP-62
IGROV-1 = system: IGROV-1
SK-MEL-28 = system: SK-MEL-28
PC-3 = system: PC-3
SN12C = system: SN12C
SW-620 = system: SW-620
SF-295 = system: SF-295
NCI-H460 = system: NCI-H460
SNB-75 = system: SNB-75
OVCAR-3 = system: OVCAR-3
786-0 = system: 786-0
K562 = system: K562
NCI/ADR-RES = system: NCI/ADR-RES
MOLT-4 = system: MOLT-4
TK-10 = system: TK-10
HCT-15 = system: HCT-15
KM12 = system: KM12
UO-31 = system: UO-31
CAKI-1 = system: CAKI-1
SNB-19 = system: SNB-19
UACC-62 = system: UACC-62
ACHN = system: ACHN
HCT-116 = system: HCT-116
CCRF-CEM = system: CCRF-CEM
Hs-578T = system: Hs-578T
SR = system: SR
HCC 2998 = system: HCC 2998
SK-MEL-5 = system: SK-MEL-5
MDA-MB-435 = system: MDA-MB-435
LOX IMVI = system: LOX IMVI
DU-145 = system: DU-145
HT-29 = system: HT-29
M14 = system: M14
OVCAR-8 = system: OVCAR-8
SF-539 = system: SF-539
COLO 205 = system: COLO 205
EKVX = system: EKVX
NCI-H23 = system: NCI-H23
OVCAR-5 = system: OVCAR-5
SF-268 = system: SF-268
NCI-H522 = system: NCI-H522
SK-MEL-2 = system: SK-MEL-2
A549 = system: A549
MDA-N = system: MDA-N
HOP-92 = system: HOP-92
MDA-MB-231 = system: MDA-MB-231
HL-60 = system: HL-60
NCI-H226 = system: NCI-H226
U-251 = system: U-251
OVCAR-4 = system: OVCAR-4
SK-OV-3 = system: SK-OV-3
RXF 393 = system: RXF 393
Malme-3M = system: Malme-3M
A498 = system: A498

`COc1cccc(C2c3cc4c(cc3OC(N3CCOCC3)C2C)OCO4)c1OC` (stereo unspecified) was tested, and the GI50 (MCF7) was 7.91 µM (inactive), the GI50 (T47D) was 3.2 µM (inactive) and the GI50 (RPMI-8226) was 6.59 µM (inactive). The GI50 (UACC-257) was 8.02 µM (inactive), the GI50 (HOP-62) was 11.4 µM (inactive) and the GI50 (IGROV-1) was 3.46 µM (inactive). For the same molecule, the GI50 (SK-MEL-28) was 13.4 µM (inactive), the GI50 (PC-3) was 11.3 µM (inactive) and the GI50 (SN12C) was 8.07 µM (inactive). The GI50 (SW-620) was 5.4 µM (inactive), the GI50 (SF-295) was 2.84 µM (inactive) and the GI50 (NCI-H460) was 7.71 µM (inactive). For the same molecule, the GI50 (SNB-75) was 4.88 µM (inactive), the GI50 (OVCAR-3) was 3.04 µM (inactive) and the GI50 (786-0) was 5.22 µM (inactive). The GI50 (K562) was 2.07 µM (inactive), the GI50 (NCI/ADR-RES) was 4.58 µM (inactive) and the GI50 (MOLT-4) was 4.28 µM (inactive). The GI50 (TK-10) was 15.5 µM (inactive), the GI50 (HCT-15) was 4.36 µM and the GI50 (KM12) was 5.68 µM (inactive). For the same molecule, the GI50 (UO-31) was 7.03 µM (inactive), the GI50 (CAKI-1) was 2.02 µM (inactive) and the GI50 (SNB-19) was 3.81 µM (inactive). For the same molecule, the GI50 (UACC-62) was 15.4 µM (inactive), the GI50 (ACHN) was 5.33 µM (inactive) and the GI50 (HCT-116) was 2.98 µM (inactive). For the same molecule, the GI50 (CCRF-CEM) was 4.52 µM (inactive), the GI50 (Hs-578T) was 4.26 µM (inactive) and the GI50 (SR) was 4.75 µM (inactive). For the same molecule, the GI50 (HCC 2998) was 10.4 µM (inactive), the GI50 (SK-MEL-5) was 9.59 µM (inactive) and the GI50 (MDA-MB-435) was 10 µM (inactive). The GI50 (LOX IMVI) was 3.06 µM (inactive), the GI50 (DU-145) was 3.21 µM (inactive) and the GI50 (HT-29) was 2.96 µM (inactive). For the same molecule, the GI50 (M14) was 9.1 µM (inactive), the GI50 (OVCAR-8) was 5.68 µM (inactive) and the GI50 (SF-539) was 10.6 µM (inactive). The GI50 (COLO 205) was 9.04 µM (inactive), the GI50 (EKVX) was 18.1 µM (inactive) and the GI50 (NCI-H23) was 14.8 µM (inactive). The GI50 (OVCAR-5) was 13.1 µM (inactive), the GI50 (SF-268) was 9.59 µM (inactive) and the GI50 (NCI-H522) was 4.26 µM (inactive). For the same molecule, the GI50 (SK-MEL-2) was 6.41 µM (inactive), the GI50 (A549) was 9.98 µM (inactive) and the GI50 (MDA-N) was 13.7 µM (inactive).
For `O=C1CC(CC(OCc2ccccc2)C(OCc2ccccc2)C(COCc2ccccc2)OCc2ccccc2)CC(=O)N1` (stereo unspecified), the GI50 (T47D) was > 10 µM (inactive), the GI50 (HOP-92) was > 100 µM (inactive) and the GI50 (TK-10) was > 100 µM (inactive) and 81.8 µM (inactive). The GI50 (MDA-MB-231) was 8.67 µM (inactive) and the GI50 (HT-29) was 4.53 µM (inactive).
With `OCN(CO)c1ccc2c(c1)Cc1cc(F)ccc1-2` the GI50 (HL-60) was 29.1 µM (inactive), the GI50 (MCF7) was 18.6 µM (inactive) and the GI50 (T47D) was 17.8 µM (inactive). The GI50 (UACC-257) was 18.7 µM (inactive), the GI50 (HOP-62) was 44.1 µM (inactive) and the GI50 (IGROV-1) was 19.3 µM (inactive). The GI50 (SK-MEL-28) was 24 µM (inactive), the GI50 (PC-3) was 16.7 µM (inactive) and the GI50 (SN12C) was 18.2 µM (inactive). The GI50 (SW-620) was 12.4 µM (inactive), the GI50 (SF-295) was 15.3 µM (inactive) and the GI50 (NCI-H460) was 24.7 µM (inactive). For the same molecule, the GI50 (NCI-H226) was 15.7 µM (inactive), the GI50 (SNB-75) was 19.1 µM (inactive) and the GI50 (OVCAR-3) was 13.9 µM (inactive). The GI50 (786-0) was 30.1 µM (inactive), the GI50 (K562) was 20.9 µM (inactive) and the GI50 (NCI/ADR-RES) was 20.2 µM (inactive). For the same molecule, the GI50 (MOLT-4) was 25.2 µM (inactive), the GI50 (TK-10) was 18.7 µM (inactive) and the GI50 (HCT-15) was 19.2 µM. For the same molecule, the GI50 (KM12) was 17.8 µM (inactive), the GI50 (UO-31) was 19.6 µM (inactive) and the GI50 (CAKI-1) was 20 µM (inactive). The GI50 (SNB-19) was 17.9 µM (inactive), the GI50 (UACC-62) was 16.6 µM (inactive) and the GI50 (ACHN) was 17.6 µM (inactive). The GI50 (HCT-116) was 39.5 µM (inactive), the GI50 (Hs-578T) was 12 µM (inactive) and the GI50 (U-251) was 17.9 µM (inactive). For the same molecule, the GI50 (SR) was 22.6 µM (inactive), the GI50 (SK-MEL-5) was 11.2 µM (inactive) and the GI50 (MDA-MB-231) was 16.4 µM (inactive). For the same molecule, the GI50 (MDA-MB-435) was 18.1 µM (inactive), the GI50 (LOX IMVI) was 17.9 µM (inactive) and the GI50 (DU-145) was 23.2 µM (inactive). For the same molecule, the GI50 (HT-29) was 14.8 µM (inactive), the GI50 (OVCAR-4) was 17.8 µM (inactive) and the GI50 (M14) was 21 µM (inactive). For the same molecule, the GI50 (OVCAR-8) was 19.7 µM (inactive), the GI50 (SF-539) was 22.3 µM (inactive) and the GI50 (COLO 205) was 12.4 µM (inactive). The GI50 (EKVX) was 14.7 µM (inactive), the GI50 (NCI-H23) was 33.3 µM (inactive) and the GI50 (SK-OV-3) was 25.2 µM (inactive). For the same molecule, the GI50 (OVCAR-5) was 19.1 µM (inactive), the GI50 (SF-268) was 23.8 µM (inactive) and the GI50 (NCI-H522) was 19.5 µM (inactive). The GI50 (RXF 393) was 24 µM (inactive), the GI50 (SK-MEL-2) was 21 µM (inactive) and the GI50 (A549) was 21.9 µM (inactive). The GI50 (Malme-3M) was 18.1 µM (inactive).
`O=P(O)(O)C=C=C1CCCCC1` was tested, and the GI50 (HL-60) was 24.3 µM (inactive), the GI50 (MCF7) was > 100 µM (inactive) and the GI50 (T47D) was > 100 µM (inactive). The GI50 (UACC-257) was > 100 µM (inactive), the GI50 (HOP-92) was > 100 µM (inactive) and the GI50 (HOP-62) was > 100 µM (inactive). For the same molecule, the GI50 (IGROV-1) was > 100 µM (inactive), the GI50 (SK-MEL-28) was > 100 µM (inactive) and the GI50 (PC-3) was > 100 µM (inactive). The GI50 (SN12C) was > 100 µM (inactive), the GI50 (SW-620) was > 100 µM (inactive) and the GI50 (SF-295) was > 100 µM (inactive). For the same molecule, the GI50 (NCI-H460) was > 100 µM (inactive), the GI50 (NCI-H226) was > 100 µM (inactive) and the GI50 (SNB-75) was > 100 µM (inactive). The GI50 (OVCAR-3) was > 100 µM (inactive), the GI50 (786-0) was > 100 µM (inactive) and the GI50 (K562) was > 100 µM (inactive). The GI50 (NCI/ADR-RES) was > 100 µM (inactive), the GI50 (TK-10) was > 100 µM (inactive) and the GI50 (HCT-15) was over 100 µM. The GI50 (KM12) was > 100 µM (inactive), the GI50 (CAKI-1) was > 100 µM (inactive) and the GI50 (SNB-19) was > 100 µM (inactive). The GI50 (UACC-62) was > 100 µM (inactive), the GI50 (ACHN) was > 100 µM (inactive) and the GI50 (HCT-116) was > 100 µM (inactive). For the same molecule, the GI50 (Hs-578T) was > 100 µM (inactive), the GI50 (U-251) was > 100 µM (inactive) and the GI50 (SR) was > 100 µM (inactive). The GI50 (HCC 2998) was > 100 µM (inactive), the GI50 (SK-MEL-5) was > 100 µM (inactive) and the GI50 (MDA-MB-435) was > 100 µM (inactive). For the same molecule, the GI50 (LOX IMVI) was > 100 µM (inactive), the GI50 (DU-145) was > 100 µM (inactive) and the GI50 (HT-29) was > 100 µM (inactive). For the same molecule, the GI50 (OVCAR-4) was > 100 µM (inactive), the GI50 (M14) was > 100 µM (inactive) and the GI50 (OVCAR-8) was > 100 µM (inactive). The GI50 (SF-539) was > 100 µM (inactive), the GI50 (COLO 205) was > 100 µM (inactive) and the GI50 (EKVX) was > 100 µM (inactive). The GI50 (NCI-H23) was > 100 µM (inactive), the GI50 (SK-OV-3) was > 100 µM (inactive) and the GI50 (OVCAR-5) was > 100 µM (inactive). For the same molecule, the GI50 (SF-268) was > 100 µM (inactive), the GI50 (NCI-H522) was > 100 µM (inactive) and the GI50 (RXF 393) was > 100 µM (inactive). For the same molecule, the GI50 (SK-MEL-2) was > 100 µM (inactive), the GI50 (A498) was > 100 µM (inactive) and the GI50 (A549) was > 100 µM (inactive). For the same molecule, the GI50 (Malme-3M) was > 100 µM (inactive) and the GI50 (MDA-N) was > 100 µM (inactive).
In the case of `CC(CN(C)C)Nc1c2ccccc2nc2cccc([N+](=O)[O-])c12` (stereo unspecified), the GI50 (HL-60) is reported as 0.203 µM (active), the GI50 (NCI-H522) is reported as 0.0268 µM (active) and the GI50 (MDA-N) is reported as 0.23 µM (active).
